From US8716288B2, “Composition comprising benproperine derivatives as active ingredients for preventing and treating angiogenesis-related diseases” (Korea Research Institute of Bioscience and Biotechnology, priority 2010, dated 2014)
Marks after values point to notes of the source that are not given here.

Tests used:
[1] = system: DLD-1 cell (human colorectal cancer cell line in which PRL-3 is over-expressed); assay: In vitro cell migration, trans-well assay; assay type: cell-based; conditions: for inhibitory activity against cell migration for colorectal cancer cell line: DLD-1, compared with control sample of 0.1% DMSO, FIG. 4
Procedure: In order to analyze inhibitory activity against in vitro cell migration of the benproperine derivative according to the present invention, after DLD-1 cell (ATCC-CCL-221), which is the human colorectal cancer cell lines in which PRL-3, cancer metastasis-related genes, is over-expressed, was grown around by 90% on the culture plate containing RPMI medium, the medium was removed and the cell was washed with PBS. The washed cell was processed with trypsin-EDTA, cultured CO2 incubator at 37° C. for […], and then detached. The resultant cells in which 10% FBS-containing RPMI medium was added were collected in the falcon tube and the medium was removed by centrifugation. The process in which FBS-free RPMI medium were added in the obtained cells and the medium was removed by centrifugation was repeated twice. After the obtained cells in which FBS-free RPMI medium was added were suspended, the number of cells was counted using a hemocytometer.
The cells of 8×10^4 cells/200 μl were added to trans-wells which were placed on 24-well plates. FBS-free RPMI medium of 500 μl was added using the empty space where trans-wells were placed on well plates and cultured in a CO2 incubator at 37° C. for 12 to 16 hours. After the medium has been removed by placing trans-wells upside down on hand towel following culture, crystal violet of 500 μl (20% MeOH in 5 mg/ml) was added to each well of 24-well plates and trans-wells were put in a CO2 incubator for 30 minutes. Stained trans-wells were washed with PBS and placed upside down on hand towel so that the remaining solution was impregnated. Membrane was placed on the cover slip with the side where the cells didn't move facing upwards and wiped well with a cotton swab. The cover slip on whose edges nail polish was applied a little was put on a slide glass and fixed. The prepared sample was photographed with an inverted microscope (TE 300, Nikon, Japan) equipped with digital camera and the number of cells having moved was counted.
Inhibitory activity against cell migration of benproperine and pharmaceutically acceptable salt thereof in Formulas 2 to 4 according to the present invention was observed by the above method, and inhibition rate was calculated by the Mathematical Equation 1.
Wherein the control sample was observed by adding 0.1% dimethyl sulfoxide (DMSO) only without addition of the compound in the present invention.

[2] = system: pancreatic cancer cell line AsPc-1 cells; assay: In vitro cell migration, trans-well assay; assay type: cell-based, human; conditions: 10 μM, AsPc-1, FIG. 5
[3] = system: melanoma cell line B16F10; assay: In vitro cell migration, trans-well assay; assay type: cell-based, mouse; conditions: 10 μM, B16F10, FIG. 5
[4] = Acute toxicity experiment of oral administration to rats; conditions: rat, in vivo, 1000 mg/kg
Procedure: In order to identify the toxicity of benproperine and pharmaceutically acceptable salt thereof according to the present invention, acute toxicity experiment was performed with laboratory animal as the subject as follow.
After 6-week-old specific pathogen free (SPF) SD bred rats were divided into groups of 2 specimens, and were orally administered once with benproperine which was prepared in Reference Example 1 and dissolved in injectable distilled water with a dose of 1000 mg/kg.

[5] = In vitro cell migration, trans-well assay; assay type: cell-based, human; conditions: 10 μM, A375P, FIG. 5
[6] = system: vascular endothelial cell HUVECs; assay: In vitro endothelial morphogenesis assay (tube formation on Matrigel); assay type: cell-based, human; conditions: 24 hours, FIG. 6
Procedure: Specifically, HUVECs (ATCC-CRL-2873) was brought into the starvation state by culturing in a serum-free medium overnight. Matrigel matrix (BD biosciences) of 0.2 ml was added in each well of 24-well plates and placed in the 37° C. incubator for 1 hour to coat the surface of well. 0.2 ml 2×10^4 cells prepared in the above were added to each well coated with Matrigel matrix and cultured in a CO2 incubator for 30 minutes. After culture, fresh medium containing benproperine of 1, 5, and 10 μM concentration was added in each well followed by the addition of 1% serum and cultured in a CO2 incubator for 24 hours. After culture, the degree of inhibitory activity against HUVECs tube formation of benproperine was observed under a microscope.

[7] = system: B16F10 human melanoma cells; assay: In vivo metastasis of cancer, melanoma cells inoculated to tail vein, lung colony count; parameters: species or system C57BL/6 mouse; conditions: 50 mg/kg intraperitoneally once a day, 14 times in total; for Inhibition rate (%) of metastasis: compared with control group, p < 0.001
Procedure: In order to analyze inhibitory activity against in vivo cell migration of benproperine according to the present invention, inhibitory activity against metastasis of cancer of benproperine was analyzed using tumor model where melanoma cells are transplanted.
Specifically, B16F10 […] melanoma cell line (ATCC-CRL-6475) was inoculated to DMEM (GIBCO, USA) medium containing 10% FBS (GIBCO, USA), and cultured at 5% CO2, 37° C. 7-week-old female specific pathogen free (SPF) C57BL/6 mouse was adapted to the laboratory environment by supplying enough antibiotic-free pellet feed (Samyang feed Inc., South Korea) and sterilized tap water, and then used in the experiment.
Cultured B16F10 […] melanoma cells were suspended in PBS 200 μl at the concentration of 2×10^6 cells/ml, and inoculated […] to tail vein of the above mouse using a 26 gauge needle. After 3 hours of inoculation, the mice were divided into two groups in which the control group treated with sterile distilled water and the experimental group was intraperitoneally administered with benproperine of 50 mg/kg once a day, 14 times in total. The administration continued for 13 consecutive days, and then stopped. On day after the administration, autopsy was performed to the mouse of each group to extract the lung, and the number of colonies of metastasized cancer cells (melanoma cells) was counted.

[8] = system: DLD-1 cell (human colorectal cancer cell line in which PRL-3 is over-expressed); assay: Cytotoxicity of benproperine, WST-1 assay; assay type: cell-based; conditions: DLD-1 cells, 48 hours, up to 10 μM, WST-1 absorbance at 450 nm, FIG. 2
Procedure: In order to examine the cytotoxicity of the benproperine derivative prepared in Reference Example 1, after DLD-1 cell (ATCC-CCL-221), which is the human colorectal cancer cell lines in which PRL-3 cancer metastasis-related genes is over-expressed, was cultured in the RPMI culture medium containing 10% fetal bovine serum (FBS) and maintained at 37° C., 5% CO2, the cell was detached using 0.05% trypsin-EDTA. 4×10^3 cells which were calculated by hemocytometer were inoculated in each well of 96-well plates medium containing 10% FBS, and cultured in 37° C. incubator containing 5% CO2. After 24 hours, the culture medium of each well was replaced with new medium containing control (0.1% DMSO) and benproperine in Formula 2, which was prepared in Reference Example 1, by concentration (5 to 10 μM) and replace it with a new medium, and was cultured in 37° C., 5% CO2 incubator for 48 hours. After WST-1 (Roche) of 10 μl was added in each well of the above plate followed by 2 hours of culture, absorbance was measured at 450 nm using ELISA reader (Bio-Rad).

[9] = Weight change in the AsPC-1 metastasis model (toxicity); assay type: in vivo, BALB/C nude mouse; conditions: 50 and 100 mg/kg orally, five times a week, total of 20 times, FIG. 7
Procedure: (§1) To be specific, the human-derived pancreatic cancer cell line AsPC-1 (adenocarcinoma; Pancrease cancer) had been stored frozen in liquid nitrogen and it was thawed and cultured in CO2 incubator (Form a, USA) with 5% CO2 at 37° C. Specific-pathogen-free (SPF) BALB/C nude mouse (orient, Korea) was used in this experiment.
The cultured cells were collected and diluted to a cell concentration of 5×10^6 cells/ml by adding serum free media. Then, the animal model was prepared by intravenous administration of 0.2 ml of the cell culture to each mouse. Subsequently, 5 mg/ml of benproperine phosphate (MD-164) (KRIBB, Korea) was prepared by dissolving it in 0.5% Tween80 and orally administered to the mouse at a dose of 10 ml/kg five times a week, for a total of 20 times.
First, in order to analyze the toxicity of benproperine phosphate, the weight of all test groups was measured prior to administration of the compound, three times a week during the test period.

[10] = system: human-derived pancreatic cancer cell line (AsPC-1); assay: In vivo metastasis of cancer, AsPC-1 transplanted in caudal vein, bioluminescence imaging; parameters: species or system BALB/C nude mouse; conditions: 50 mg/kg orally, 28th day after drug administration, lung, FIG. 8
From the text: In order to examine the in vivo inhibitory activity of the salt of benproperine of the present invention against metastasis of cancer, the inhibitory activity of benproperine phosphate (MD-164) against metastasis of cancer and toxicity of the same were examined by using the animal model which was transplanted with human-derived pancreatic cancer cell line (AsPC-1) in caudal vein.
as §1, with “experiment. […]” for “experiment.”
Secondly, in order to establish an animal model of pulmonary metastases, luciferase stably expressing AsPC-1 cell line was transplanted into a tail vein of mouse at a dose of 1×10^6 cells/mouse. […] The bioluminescence value was measured for equal area of each mouse subject, and the metastasis inhibition rate (%) in the group administered with benproperine phosphate was determined compared to a control group by the Mathematical Equation 2.
On the 28th day after drug administration, the lung of animal model was collected, the number of colony was measured, and imaging signal (photone/s/sr) was also measured.

**Q.** For CC(COc1ccccc1Cc1ccccc1O)N1CCCCC1 (centres unmarked) [2-hydroxybenproperine], which “inhibitory activity against cell migration for colorectal cancer cell line” value (from here on “inhibitory activity”) [1] is on record?
**A.** inhibit effectively

**Q.** For CC(COc1ccccc1Cc1ccccc1)N1CCCC(O)C1 (centres unmarked) [3-hydroxybenproperine], which “inhibitory activity” value [1] is on record?
**A.** inhibit effectively

**Q.** For CC(COc1ccccc1Cc1ccccc1)N1CCCCC1 (centres unmarked) [benproperine], which “cell migration compared with DMSO-treated sample” value [2] is on record?
**A.** prominently inhibited

**Q.** And the “cell migration compared with DMSO-treated sample” value [3]?
**A.** prominently inhibited

**Q.** What about the LD50 ([4]; Sprague-Dawley (SD), rats, single oral administration, read-out: minimum lethal dose (LD50) for oral administration) of the same molecule?
**A.** > 1000 mg/kg

**Q.** What about the “clinical symptoms, death, or weight changes” value ([4]; po) of the same molecule?
**A.** not observed

**Q.** What about the “toxic change (hematological examination, biochemical examination of blood, autopsy)” value ([4]; po) of the same molecule?
**A.** no toxic change

**Q.** What about the “cell migration compared with DMSO-treated sample” value [5] of the same molecule?
**A.** prominently inhibited

**Q.** What about the “inhibition of tube formation of HUVECs” value ([6]; 10 μM, compared to DMSO-treated control group) of the same molecule?
**A.** significantly

**Q.** And the “inhibition of tube formation of HUVECs” value ([6]; 1, 5 and 10 μM)?
**A.** concentration-dependent manner

**Q.** And the “Inhibition rate (%) of metastasis” value [7]?
**A.** 45.1%

**Q.** And the “Inhibition rate (%) of metastasis” value ([7]; listed as Benproperine)?
**A.** 45.1* %

**Q.** What about the “Number of lung colony (average ± SD)” value ([7]; negative control 106 ± 23.3) of the same molecule?
**A.** 58.2 ± 25.8

**Q.** What about the cytotoxicity [8] of the same molecule?
**A.** no cytotoxicity

**Q.** What about the “cell migration compared with DMSO-treated sample” value ([1]; 10 μM, DLD-1, FIG. 5) of the same molecule?
**A.** prominently inhibited

**Q.** And the “inhibitory activity” value [1]?
**A.** inhibit effectively

**Q.** And the inhibition at 5 µM ([1]; Homo sapiens, 5 μM, DLD-1, control 0.1% DMSO, FIG. 3, read-out: inhibition of migration of colorectal cancer cell compared to control)?
**A.** > 80%

**Q.** And the inhibition at 10 µM ([1]; Homo sapiens, 10 μM, DLD-1, control 0.1% DMSO, FIG. 3, read-out: inhibition of migration of colorectal cancer cell compared to control)?
**A.** > 90%

**Q.** Which “weight loss in comparison to a control group” value [9] does the source give for benproperine phosphate here?
**A.** no significant weight loss

**Q.** And the “inhibition rate against metastasis compared to a control group” value [10]?
**A.** 71.5%
